# Legend:
# CD95L mRNA = CD95L mRNA levels by RT-PCR in day 6 T cells stimulated with plate bound α-CD3; assay type: cell-based, human; settings: 25 µM vitamin E 1 h, then α-CD3 12 h (Fig. 1B)
# Method: (§1) The day 6 T cells were cultured in the absence or presence of 25 µM vitamin E for 1 h and then stimulated for 12 h with plate bound α-CD3. The mRNA was analyzed by RT-PCR using primers specific for CD95L (Eichhorst et al., Mol. Cell. Biol. 20 (2000), 7826) . For controls, primers for IFNγ and β-actin were used. The primers had the following sequences: • CD95L: sense-5'-[…]-3' antisense-5'[…]-3' • IFN-γ: sense-5'[…]-3' antisense-5'[…]-3' • human β-actin: sense-5'[…]-3' antisense-5'[…]-3'
# (§2) Since activation-induced-cell-death (AICD) is a major cause of T cell depletion in AIDS and since supplementation of vitamin E is shown to increase T cell numbers, it was investigated whether vitamin E could protect from T cell depletion by AICD. To analyze the effect of vitamin E on T cell death, freshly isolated peripheral blood T cells were prestimulated for 6 days (referred to as day 6 cells) and subsequently restimulated via the TCR by plate-bound α-CD3 antibodies. […] CD95 (APO-1/Fas) and its ligand (CD95L) are known to play a major role in AICD of T cells. […] The concentration of vitamin E in plasma from healthy individuals normally ranges from 12-35 µM. Thus, vitamin E at physiological concentrations may attenuate AICD. Indeed, depending on the blood donors, vitamin E reduced AICD by 20-50%. […]
# AP-1 = test: Luciferase reporter assay in J-27 T cells, three copies of the CD95L promoter AP-1 motif; assay type: cell-based; settings: J-27 cells, 50 µM vitamin E 1 h, PMA/ionomycin 8 h (Fig. 4)
# Text: (§3) J-27 T cells were transiently transfected with the luciferase reporter constructs containing the 0.86-kb CD95L promoter (Li-Weber et al., Eur. J. Immunol. 30 (2000), 661), or three copies of the NF-κB binding sites at -530 or -50 region (Li-Weber et al., Eur. J. Immunol. 30 (2000), 661) or the AP-1 motif at +90 region (Eichhorst et al., Mol. Cell. Biol. 20 (2000), 7826) of the CD95L promoter as described in Li-Weber et al., 2000. All promoter constructs are described in the cited references. A luciferase reporter construct containing three copies of the Egr consensus binding site was used as a control (Li-Weber et al., Eur. J. Immunol. 29 (1999), 3017). After overnight culture, the cells were divided and treated with vitamin E (VE) (50 µM) or the vitamin E solvent ethanol for 1 h and than further cultured in the absence (empty box) or presence (black box) of PMA (10 ng/ml) and ionomycin (0.5 µM). Luciferase activity was determined after 8 h of stimulation. Results represent the average of three to five independent transfection experiments.
# (§4) To further investigate the effect of vitamin E on CD95L expression, the CD95L promoter (-860 to +100) or a minimal TATA promoter containing three copies of either the NF-B or the AP1 sites of the CD95L promoter were linked to the luciferase reporter gene and these constructs were transiently transfected into J-27 T cells. […]
# IFNγ mRNA = IFNγ mRNA levels by RT-PCR (control) in day 6 T cells stimulated with plate bound α-CD3; assay type: cell-based, human; settings: 25 µM vitamin E 1 h, then α-CD3 12 h (Fig. 1B)
# Method: as §1, §2
# [1] = tested on: peripheral blood lymphocytes of HIV positive individuals; test: AICD of peripheral blood lymphocytes of HIV positive individuals stimulated with plate bound α-CD3; assay type: cell-based, human
# Method: Peripheral blood lymphocytes from HIV positive individuals (n = 33 Patients) and uninfected donors (11 Donors) were stimulated with plate bound (α-CD3 (50 µg/ml) for 48 h. Apoptosis was assessed by a drop in the forward to side scatter profile of apoptotic in comparison to living cells. The mean difference between patients and uninfected individuals is -7.23. 95% confidence interval is -13.7, -2.12.
# Freshly isolated blood lymphocytes from 31 HIV positive individuals were stimulated with plate bound α-CD3 in the absence or presence of either 50 µg/ml CD95-Fc or 25 µM vitamin E (VE) (added 1 h before stimulation). IgG-1 (50 µg/ml), Sigma (St. Louis, MO, USA) was used as control. Cell death was assessed after 48 h stimulation.
# To determine if vitamin E could reduce depletion of T cells from HIV positive individuals next the effects of vitamin E on AICD in peripheral blood lymphocytes of such individuals were analyzed. […] As opposed to lymphocytes from healthy donors lymphocytes isolated from HIV-infected individuals were more susceptible to apoptosis (Fig. 6A). […] Experimental details are given in the legend to Figure 6.
# CD95L promoter = test: Luciferase reporter assay in transiently transfected J-27 T cells, 0.86-kb CD95L promoter; assay type: cell-based; settings: J-27 cells, 50 µM vitamin E 1 h, PMA/ionomycin 8 h (Fig. 4)
# Text: as §3, §4
# [2] = tested on: human peripheral blood T cells; test: AICD of day 6 prestimulated peripheral blood T cells restimulated with plate-bound α-CD3, cell death by propidium iodide uptake; assay type: cell-based; settings: depending on the blood donors; vitamin E at physiological concentrations
# Method: Freshly isolated blood T cells were stimulated by PHA and cultured in the presence of IL-2 for 6 days as described in Klas et al., Int. Immunol. 5 (1993), 625. The day 6 prestimulated T cells were then treated without or with 25 µM vitamin E (VE) Sigma (St. Louis, MO, USA) for 1 h and subsequently cultured in 96-well-flat-bottomed plates coated with α-CD3 (OKT3, 50 µg/ml; (DKFZ, Prof. Krammer) in the absence or presence of CD95-Fc (50 µg/ml; (DKFZ, Prof. Krammer, Dhein et al., Nature 373 (1995), 438) or control human (50 µg/ml) IgG-1. Cell death was assessed after a further 48 h by propidium iodide (PI) uptake (Klas et al., Int. Immunol. 5 (1993), 625.
# as §2, with “AICD.” for “AICD. Indeed, depending on the blood donors, vitamin E reduced AICD by 20-50%.”
# Jurkat J-27 T cells = test: AICD of Jurkat J-27 T cells, apoptotic nuclei by DNA fragmentation; assay type: cell-based; settings: J-27 cells
# Method: J-27 T cells were induced either with PMA (10 ng/ml) Sigma (St. Louis, MO, USA) and ionomycin (0.5 µM), Calbiochem (Bad Soden/Ts, Germany) or with plate bound α-CD3 (OKT3, 50 µg/ml) for 24 h in the presence of vitamin E or equal amount of the vitamin E solvent ethanol. Apoptotic nuclei were measured by determination of DNA fragmentation (Dhein et al., Nature 373 (1995), 438).
# J-27 cells were stimulated in the absence or presence of CD95-Fc (50 µg/ml) or NOKI (50 µg/ml). BD-Pharmingen (Heidelberg, Germany), for 24 h.
# To further investigate the molecular mechanism by which vitamin E attenuates AICD, several Jurkat T cell sub-clones susceptible to T-cell-receptor (TCR)-mediated-activation-induced apoptosis were selected. Data from one of the representative clones, clone 27 (J-27) is presented here. Activation of T cells through the T cell receptor can be mimicked by stimulation with the phorbol ester (PMA) and calcium ionophores (ionomycin). […] Therefore, it is unlikely that vitamin E directly interferes with signals downstream of the CD95 receptor. […] Thus, vitamin E may reduce CD95L expression at the transcriptional level and, therefore, attenuate AICD in J-27 cells. Experimental details are given in the legend to Figure 2.
# NF-Y = test: EMSA control, constitutive transcription factor, NF-Y binding oligonucleotide; assay type: cell-based; settings: J-27 nuclear extracts, 50 µM vitamin E (Fig. 3A)
# Method: Nuclear extracts were prepared from J-27 T cells either non-induced (-) or induced (+) for 2 h by PMA (10 ng/ml) and ionomycin (0.5 µM) in the absence (-) or presence (+) of 50 µM vitamin E (VE) (added 1 h before induction). The inducible complex corresponding to NF-κB and AP-1 were indicated. A NF-Y binding oligonucleotide 5'[…]-3' was used for equal loading of nuclear extracts.
# It was investigated whether vitamin E affects NF-KB and AP-1 binding to the CD95L promoter target sites. Nuclear extracts were prepared from J-27 T cells stimulated in the presence or absence of vitamin E. The NF-κB and AP-1 binding sites contained in the CD95L promoter were used as probes in an electrophoretic-mobility-shift-assay (EMSA). Stimulation of T cell with PMA and ionomycin induced binding of nuclear factors to the NF-κB and AP-1 sites of the CD95L promoter (Fig. 3A). These inducible binding complexes were either reduced or supershifted in the presence of antibodies against the subunits p50 and p65 of NF-κB or antibodies against the AP-1 family members Jun and Fos (Fig. 3B). […] As a control, the constitutive transcription factor […] was not affected by vitamin E (Fig. 3A). Experimental details are given in the legend to Figure 3.
compound,measurement,setting,value
"Cc1c(C)c2c(c(C)c1O)CC[C@@](C)(CCC[C@H](C)CCC[C@H](C)CCCC(C)C)O2 [vitamin E, α-tocopherol]",increase of CD95L mRNA expression upon restimulation,CD95L mRNA,blocked
same,luciferase expression driven by the AP-1 site of the CD95L promoter,AP-1,greatly reduced
same,levels of IFNγ mRNA,IFNγ mRNA,did not significantly influence
same,AICD,"[1]; 31 HIV positive individuals, α-CD3, 25 µM vitamin E added 1 h before stimulation, 48 h (Fig. 6B)",greatly reduced
same,reduction of AICD compared with that obtained by CD95-Fc,"[1]; HIV positive individuals, 25 µM vitamin E vs 50 µg/ml CD95-Fc (Fig. 6B)",even more pronounced
same,luciferase expression driven by the CD95L promoter,CD95L promoter,greatly reduced
same,reduced AICD,[2],20-50%
same,PMA/ionomycin-induced cell death,"Jurkat J-27 T cells; PMA 10 ng/ml and ionomycin 0.5 µM, 24 h (Fig. 2A, B)",significantly reduced
same,α-CD3-induced cell death,"Jurkat J-27 T cells; plate bound α-CD3 (OKT3, 50 µg/ml) 24 h (Fig. 2A, B)",significantly reduced
same,NF-Y binding (constitutive loading control),NF-Y,not affected
